Test results published in patent publication US20100305068A1, “COMPOUNDS AND METHODS FOR MODULATING PROTEIN TRAFFICKING” (priority 2006, published 2010).
Read-outs that look alike come from different tables or passages of the source.

Tested on: pdr5 ypt1^ts cells
Experiment: microbe, parasite or virus in culture
Assay type: cell-based, yeast
Details: for minimal effective concentration: Saccharomyces cerevisiae, lowest concentration tested giving growth above the 0 μM background, read-out: ypt1-ts MRC (minimal rescue concentration); for minimal effective concentration / optical density, ypt1-ts, 0.39 / optical density, ypt1-ts, 0.78 / optical density, ypt1-ts, 1.56 / optical density, ypt1-ts, 3.13 / optical density, ypt1-ts, 6.25 / optical density, ypt1-ts, 12.5 / optical density, ypt1-ts, 25: Table 2; for optical density, ypt1-ts, 0.39: 0.39 μM compound; for optical density, ypt1-ts, 0.39 / optical density, ypt1-ts, 0.78 / optical density, ypt1-ts, 1.56 / optical density, ypt1-ts, 3.13 / optical density, ypt1-ts, 6.25 / optical density, ypt1-ts, 12.5 / optical density, ypt1-ts, 25: background (0 μM) 0.058; for optical density, ypt1-ts, 0.78: 0.78 μM compound; for optical density, ypt1-ts, 1.56: 1.56 μM compound; for optical density, ypt1-ts, 3.13: 3.13 μM compound; for optical density, ypt1-ts, 6.25: 6.25 μM compound; for optical density, ypt1-ts, 12.5: 12.5 μM compound; for optical density, ypt1-ts, 25: 25 μM compound
Outline: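 Whole-cell yeast growth-rescue screen: pdr5 ypt1^ts cells (efflux pump inactivated), growth-arrested at 37° C., cultured with compounds at 37° C. Restoration of growth read by optical density.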

[1] = Table 3, 3.13 uM compound, 37° C., background (0 uM) 0.077
[2] = Table 3, 12.5 uM compound, 37° C., background (0 uM) 0.077
[3] = Table 3, 50 uM compound, 37° C., background (0 uM) 0.077

CC(=O)O[C@@H]1c2c(ccc3ccc(=O)oc23)OC(C)(C)[C@@H]1OC(=O)CC(C)C [DIHYDROSAMIDIN]
minimal effective concentration (37° C.): 12.5 µM
optical density, ypt1-ts, 0.39 (37° C.): 0.091
optical density, ypt1-ts, 0.78 (37° C.): 0.068
optical density, ypt1-ts, 1.56 (37° C.): 0.079
optical density, ypt1-ts, 3.13 (37° C.): 0.105
optical density, ypt1-ts, 6.25 (37° C.): 0.097
optical density, ypt1-ts, 12.5 (37° C.): 0.14
optical density, ypt1-ts, 25 (37° C.): 0.221

COc1ccc(C(=O)c2ccccc2O)c(O)c1 [DIOXY- BENZONE, reference compound]
optical density, 3.13 uM [1]: 0.088
optical density, 12.5 uM [2]: 0.12
optical density, 50 uM [3]: 0.579

CN(C)C(=O)Nc1ccc(Cl)c(Cl)c1 [DIURON]
minimal effective concentration (37° C.): 25 µM
optical density, ypt1-ts, 0.39 (37° C.): 0.082
optical density, ypt1-ts, 0.78 (37° C.): 0.073
optical density, ypt1-ts, 1.56 (37° C.): 0.087
optical density, ypt1-ts, 3.13 (37° C.): 0.081
optical density, ypt1-ts, 6.25 (37° C.): 0.095
optical density, ypt1-ts, 12.5 (37° C.): 0.101
optical density, ypt1-ts, 25 (37° C.): 0.132

COc1ccc2c(c1OC)OC[C@@H](c1ccc(OC)c(OC)c1OC)C2 [DUARTIN, DIMETHYL ETHER]
minimal effective concentration (37° C.): 3.13 µM
optical density, ypt1-ts, 0.39 (37° C.): 0.166
optical density, ypt1-ts, 0.78 (37° C.): 0.092
optical density, ypt1-ts, 1.56 (37° C.): 0.111
optical density, ypt1-ts, 3.13 (37° C.): 0.14
optical density, ypt1-ts, 6.25 (37° C.): 0.239
optical density, ypt1-ts, 12.5 (37° C.): 0.287
optical density, ypt1-ts, 25 (37° C.): 0.474

C[C@]12CCC3C(CC[C@H]4C[C@H](O)CC[C@]34C)C1CC[C@@H]2O (stereo partly drawn) [EPIANDROSTANEDIOL]
minimal effective concentration (37° C.): 12.5 µM
optical density, ypt1-ts, 0.39 (37° C.): 0.082
optical density, ypt1-ts, 0.78 (37° C.): 0.073
optical density, ypt1-ts, 1.56 (37° C.): 0.068
optical density, ypt1-ts, 3.13 (37° C.): 0.082
optical density, ypt1-ts, 6.25 (37° C.): 0.099
optical density, ypt1-ts, 12.5 (37° C.): 0.145
optical density, ypt1-ts, 25 (37° C.): 0.321

CCCSP(=O)(OCC)SCCC [ETHOPROP]
optical density, 3.13 uM: 0.118
optical density, 12.5 uM: 0.134
optical density, 50 uM: 0.251

CC(=O)O[C@@H]1CC2C(C)(C)C(=O)C=C[C@]2(C)C2CC[C@@]3(C)[C@H](c4ccoc4)OC(=O)[C@H]4O[C@]43[C@@]21C (stereo partly drawn) [GEDUNIN]
optical density, 3.13 uM [1]: 0.109
optical density, 12.5 uM [2]: 0.231
optical density, 50 uM [3]: 0.183

Cc1ccc(C)c(OCCCC(C)(C)C(=O)O)c1 [GEMFIBROZIL, reference compound]
minimal effective concentration (37° C.): 3.13 µM
optical density, ypt1-ts, 0.39 (37° C.): 0.106
optical density, ypt1-ts, 0.78 (37° C.): 0.082
optical density, ypt1-ts, 1.56 (37° C.): 0.1
optical density, ypt1-ts, 3.13 (37° C.): 0.219
optical density, ypt1-ts, 6.25 (37° C.): 0.442
optical density, ypt1-ts, 12.5 (37° C.): 0.615
optical density, ypt1-ts, 25 (37° C.): 0.358

COc1ccc2c(c1)O[C@H]1c3ccc(OC)cc3OC[C@@H]21 [HOMOPTEROCARPIN]
minimal effective concentration (37° C.): 25 µM
optical density, ypt1-ts, 0.39 (37° C.): 0.083
optical density, ypt1-ts, 0.78 (37° C.): 0.064
optical density, ypt1-ts, 1.56 (37° C.): 0.065
optical density, ypt1-ts, 3.13 (37° C.): 0.071
optical density, ypt1-ts, 6.25 (37° C.): 0.09
optical density, ypt1-ts, 12.5 (37° C.): 0.117
optical density, ypt1-ts, 25 (37° C.): 0.44

CC(C)c1c(O)ccc2c1CCC1[C@@](C)(CO)CCC[C@]21C (stereo partly drawn) [HYDROXY (19)TOTAROL]
minimal effective concentration (37° C.): 12.5 µM
optical density, ypt1-ts, 0.39 (37° C.): 0.098
optical density, ypt1-ts, 0.78 (37° C.): 0.076
optical density, ypt1-ts, 1.56 (37° C.): 0.085
optical density, ypt1-ts, 3.13 (37° C.): 0.106
optical density, ypt1-ts, 6.25 (37° C.): 0.125
optical density, ypt1-ts, 12.5 (37° C.): 0.407
optical density, ypt1-ts, 25 (37° C.): 0.515

CCOC(=O)c1c(C)cc(O)c(C=O)c1O [H[…], ETHYL ESTER]
minimal effective concentration (37° C.): 3.13 µM
optical density, ypt1-ts, 0.39 (37° C.): 0.104
optical density, ypt1-ts, 0.78 (37° C.): 0.078
optical density, ypt1-ts, 1.56 (37° C.): 0.105
optical density, ypt1-ts, 3.13 (37° C.): 0.135
optical density, ypt1-ts, 6.25 (37° C.): 0.204
optical density, ypt1-ts, 12.5 (37° C.): 0.621
optical density, ypt1-ts, 25 (37° C.): 0.645

CC(C)=CCOc1c2occc2cc2ccc(=O)oc12 [IMPERATORIN]
minimal effective concentration (37° C.): 12.5 µM
optical density, ypt1-ts, 0.39 (37° C.): 0.084
optical density, ypt1-ts, 0.78 (37° C.): 0.064
optical density, ypt1-ts, 1.56 (37° C.): 0.066
optical density, ypt1-ts, 3.13 (37° C.): 0.073
optical density, ypt1-ts, 6.25 (37° C.): 0.082
optical density, ypt1-ts, 12.5 (37° C.): 0.147
optical density, ypt1-ts, 25 (37° C.): 0.244

COc1ccc(-c2coc3c(OC)c(OC)cc(O)c3c2=O)cc1 [ISO- TECTORIGENIN, 7-METHYL ETHER]
optical density, 3.13 uM [1]: 0.09
optical density, 12.5 uM [2]: 0.147
optical density, 50 uM [3]: 0.595

COc1ccc(C2CC(=O)c3ccc(OC)cc3O2)cc1 (stereo not drawn) [LIQUIRITI- GENIN DIMETHYL ETHER]
optical density, 3.13 uM [1]: 0.086
optical density, 12.5 uM [2]: 0.13
optical density, 50 uM [3]: 0.364

CCOC(=O)N1CCC(=C2c3ccc(Cl)cc3CCc3cccnc32)CC1 [LORATADINE, reference compound]
minimal effective concentration (37° C.): 25 µM

Oc1ccc2c(c1)OCC1c3cc4c(cc3OC21)OCO4 (stereo not drawn) [MAACKIAIN]
minimal effective concentration (37° C.): 25 µM
optical density, ypt1-ts, 0.39 (37° C.): 0.084
optical density, ypt1-ts, 0.78 (37° C.): 0.073
optical density, ypt1-ts, 1.56 (37° C.): 0.076
optical density, ypt1-ts, 3.13 (37° C.): 0.103
optical density, ypt1-ts, 6.25 (37° C.): 0.09
optical density, ypt1-ts, 12.5 (37° C.): 0.104
optical density, ypt1-ts, 25 (37° C.): 0.209

CC(=O)[C@H]1CCC2C3C[C@H](C)C4=CC(=O)CC[C@]4(C)C3[C@@H](O)C[C@@]21C (stereo partly drawn) [MEDRY- SONE, reference compound]
optical density, 3.13 uM [1]: 0.114
optical density, 12.5 uM [2]: 0.165
optical density, 50 uM [3]: 0.266

CC(=O)O[C@]1(C(C)=O)CC[C@H]2[C@@H]3C=C(C)C4=CC(=O)CC[C@]4(C)[C@H]3CC[C@@]21C [MEGESTROL ACETATE, reference compound]
optical density, 3.13 uM [1]: 0.222
optical density, 12.5 uM [2]: 0.341
optical density, 50 uM [3]: 0.202

COc1c2occc2cc2ccc(=O)oc12 [METHOX- SALEN, reference compound]
optical density, 3.13 uM [1]: 0.124
optical density, 12.5 uM [2]: 0.25
optical density, 50 uM [3]: 0.38

COc1cc(C)c2c(=O)cc(-c3ccccc3)oc2c1 [METHOXYVONE]
minimal effective concentration (37° C.): 12.5 µM
optical density, ypt1-ts, 0.39 (37° C.): 0.095
optical density, ypt1-ts, 0.78 (37° C.): 0.09
optical density, ypt1-ts, 1.56 (37° C.): 0.09
optical density, ypt1-ts, 3.13 (37° C.): 0.105
optical density, ypt1-ts, 6.25 (37° C.): 0.114
optical density, ypt1-ts, 12.5 (37° C.): 0.142
optical density, ypt1-ts, 25 (37° C.): 0.258

CCOC(=O)c1c(C)cc(O)c(C)c1O [METHYL[…], ETHYL ESTER]
minimal effective concentration (37° C.): 25 µM
optical density, ypt1-ts, 0.39 (37° C.): 0.082
optical density, ypt1-ts, 0.78 (37° C.): 0.073
optical density, ypt1-ts, 1.56 (37° C.): 0.072
optical density, ypt1-ts, 3.13 (37° C.): 0.084
optical density, ypt1-ts, 6.25 (37° C.): 0.097
optical density, ypt1-ts, 12.5 (37° C.): 0.119
optical density, ypt1-ts, 25 (37° C.): 0.259

CCN(CC)CCNC(=O)c1cc(Cl)c(N)cc1OC.Cl [METO- […]- CHLORIDE, reference compound]
optical density, 3.13 uM [1]: 0.099
optical density, 12.5 uM [2]: 0.158
optical density, 50 uM [3]: 0.555

COC(=O)C[C@H]1C(C)(C)C(=O)[C@@H]2CC3=C4CC(=O)O[C@@H](c5ccoc5)[C@]4(C)CCC3[C@]1(C)C2=O (stereo partly drawn) [MEXICANOLIDE]
minimal effective concentration (37° C.): 6.25 µM
optical density, ypt1-ts, 0.39 (37° C.): 0.092
optical density, ypt1-ts, 0.78 (37° C.): 0.069
optical density, ypt1-ts, 1.56 (37° C.): 0.076
optical density, ypt1-ts, 3.13 (37° C.): 0.105
optical density, ypt1-ts, 6.25 (37° C.): 0.216
optical density, ypt1-ts, 12.5 (37° C.): 0.377
optical density, ypt1-ts, 25 (37° C.): 0.573

O=C1c2c(O)ccc(O)c2C(=O)c2c(NCCNCCO)ccc(NCCNCCO)c21 [MITO- XANTHRONE HYDRO- CHLORIDE, reference compound]
optical density, 3.13 uM [1]: 0.149
optical density, 12.5 uM [2]: 0.132
optical density, 50 uM [3]: 0.313
